Measured values: patent publication US8747910B2, “Prediction of response to platinum-based therapy” (Atlas Antibodies AB, priority 2009, dated 2014)

Key:
[1] = tested on: epithelial ovarian cancer; assay: Gene expression analysis of ovarian cancer, recurrence free survival; type: in vivo, human; settings: patients with tumors of high vs low RBM3 expression level; 210 serous samples; FIG. 19
Excerpt: Data was collected from a previously performed microarray study, based on a patient cohort of 285 patients diagnosed with epithelial ovarian cancer between 1992 and 2006. Institutional Review Board approval for patient consent had been obtained for all patients.
The median age of patients was 59 years (ranging from 18-79 years). The inventors decided to exclude data from 18 patients who received neoadjuvant therapy, as the inventors realized that this treatment could possibly influence RBM3 mRNA levels, and might thus lead to biased results. Further, data from 40 patients who didn't receive platinum based therapy were removed from the data set. Of these 227 samples, 210 came from patients with serous cancer, 16 with endometroid and 1 with adenocarcinoma. For statistical analysis only serous samples were considered. Pathology evaluation data existed for all patients, and recurrence free survival was evaluated for RBM3 high as well as RBM3 low mRNA content.

[2] = tested on: A2780 and A2780-Cp70 cells; assay: WST-1 cell viability assay after cisplatin treatment; type: cell-based, human; settings: A2780-cp70 compared to parental A2780; cisplatin 0-100 μM, 48 h; FIG. 23
Procedure: The effect of cisplatin on cell viability was determined by the WST-1 assay (Roche Applied Science) according to the manufacturer's recommendation. A2780 and A2780-Cp70 cells were seeded in 96-well plates at the density of 2500 cells/well in 100 μl appropriate medium a day before addition of cisplatin. The cells were treated with cisplatin (0-100 μM) for 48 h. Samples were made in triplicate. Ten microliters WST-1 solution was added per well and cells were incubated at 37° C. for 4 hr. The absorbance of each well was measured using a scanning multiwell spectrophotometer, ELISA reader at the wavelength of 450 nm and reference wavelength of 690 nm.

A2780 cells = assay: Effect of RBM3 knockdown on cisplatin resistance (WST-1 viability); type: cell-based, human; settings: cisplatin sensitive cells with anti-RBM3 siRNA 50 nM vs non-exposed cells; cisplatin 1-100 μM; FIG. 24
Procedure: The human ovarian cancer cell line A2780 and the cisplatin-resistant variant A2780 Cp70 were maintained in RPMI-1640 supplemented with glutamine, 10% fetal bovine serum and 1% penicillin/streptomycin in a humidified incubator of 5% CO2 at 37° C. Cisplatin (Sigma) was dissolved in 0.9% NaCl to a stock solution of 1 mg/ml and added to cell cultures to the final concentration (1-100 μM).
Transfection with siRNA against RBM3 (Applied Biosystems, Carlsbad, Calif.) or control siRNA (Applied Biosystems) was performed with Lipofectamine 2000 (Invitrogen, Carlsbad, Calif.) with a final concentration of 50 nM siRNA.
The effect of cisplatin on cell viability was determined by the WST-1 assay as described in Examples, section 12.

`N.N.[Cl][Pt][Cl]` [cisplatin] was tested, and the recurrence free survival [1] was “significantly better recurrence free survival”, the “viability after cisplatin treatment” value [2] was “increased viability” and the “viability after cisplatin treatment at low RBM3 protein expression” value (A2780 cells) was “increased viability”.
